Experimental findings from patent publication US4985547A, “External skin care preparation” (Kao Corporation, priority 1987, dated 1991) are described below.

Experiment [1] concerns horny layer. Put plainly: Skin conductance (water content of horny layer) after two-week coating on cheeks. The class given is in vivo, women. Details: key: conductance meter reading; ≤5 = severe roughness, ≥20 = no roughness. Conditions: Invention Product 1: vaseline and compound 3:1 by weight; two weeks; 20° C., 40% humidity; 5 and smaller = severe roughness, 20 or greater = no substantial roughness. The text has this:
(§1) Compounds Ia1 -Ia18 prepared respectively in Referential Examples 1, 2 and 3 and following the procedures of these referential examples, compounds Ib1 -Ib5 prepared respectively in Referential Example 4 and following the procedure of the referential example, compounds Id1 -Id5 prepared respectively in Referential Example 5 and following the procedure of the referential example, compounds Ie1 -Ie4 prepared respectively in Referential Examples 6-9, and conventional compounds Ic1 -Ic13, Ie5 -Ie14 and II1 -II12 were used separately. Mixtures (Invention Products 1), each of which had been formulated by mixing vaseline and the compound (I or II) at a weight ratio of 3:1, and vaseline (Comparative Product 1) were evaluated in skin conductance and skin roughness by the following methods.
(§2) Chosen as volunteers in winter were 10 women of 20-50 years of old who had skin roughness on their both cheeks. Different external skin care preparations were coated separately on the left and right cheeks of each volunteer for two weeks. On the following day of the completion of the two-week coating test, tests were conducted with respect to the following properties.
After washing the face with warm water of 37° C., each volunteer was allowed to rest for 20 minutes in a room which was air-conditioned at 20° C. and 40% humidity. The water content of their horny layer was measured by a skin conductance meter (manufactured by IBS Company). A smaller conductance value indicates greater skin roughness. Conductance values of 5 and smaller indicate severe skin roughness. On the contrary, no substantial skin roughness is observed where this value is 20 or greater.

The subject of experiment [2] is skin roughness. Description: Score of skin roughness, visual ranking after two-week coating on cheeks. It counts as in vivo, women. Conditions: compound 1.0 wt. %, average, 0 = none, 4 = severe.
Excerpt: as §1, §2
Skin roughness was observed visually and ranked in accordance with the following standard. Each score was indicated by an average value.
Score Ranking of skin roughness
0 No skin roughness was observed.
1 Slight skin roughness was observed.
2 Skin roughness was observed.
3 Rather severe skin roughness was observed.
4 Severe skin roughness was observed.
Using separately the compounds used in Example 1, external skin care preparations (emulsified cosmetic preparations) of their corresponding compositions shown below in Table 2 were formulated. Their effects for the improvement of skin roughness were evaluated in the same manner as in Example 1.

Where [3] appears, read: Invention product 2: emulsified cosmetic, glyceryl ether 2.0 wt. %.
Setting [4] is: Invention product 3: emulsified cosmetic, arginine monocetylphosphate 2.0 wt. %.
Where [5] appears, read: Invention product 4: emulsified cosmetic, polyoxyethylene (20) sorbitan stearate 1.0 and sorbitan monostearate 1.0 wt. %.

In experiment [1], `CCCCCCCCCCCCCCCCOCC(O)CN(CCO[C@@H]1O[C@H](CO)[C@@H](O[C@@H]2O[C@H](CO)[C@H](O)[C@H](O)[C@H]2O)[C@H](O)[C@H]1O)C(=O)CCCCCCCCCCCCCCC` (stereo partly drawn) [Compound Ie2, N-(3-hexadecyloxy-2-hydroxypropyl)-N-[2-O-(4-β-D-galactopyranosyl-β-D-glucopyranosyl)ethyl]hexadecanamide] yielded a Skin conductance of 29. Besides, the “Score of skin roughness” value amounted to 0.4 in experiment [2] (setting [3]), 0.5 in experiment [2] (setting [4]) and 0.8 in experiment [2] (setting [5]).

`CCCCCCCCCCCCCCCCOCC(O)CN(CCOCCO)C(=O)CCCCCCCCCCCCCCC` (stereo not drawn) [Compound Ib1, N-(3-hexadecyloxy-2-hydroxypropyl)-N-2-hydroxyethoxyethylhexadecanamide] gave a Skin conductance in experiment [1] of 20. Further, the entries for the “Score of skin roughness” value in experiment [2] (setting [3]), in experiment [2] (setting [4]) and in experiment [2] (setting [5]) were 0.1, 0.2 and 0.7, respectively.

On to `CCCCCCCCCCCCCCCCOCC(O)CN(C(=O)CCCCCCCCCCCCCCC)C(CO)C(=O)O` (stereo not drawn) [Compound Ic8], for which the Skin conductance in experiment [1] was 18. Besides, the “Score of skin roughness” value in experiment [2] (setting [3]) was determined as 0.4; in experiment [2] (setting [4]) it was 0.6; in experiment [2] (setting [5]) it was 0.9.

In turn, `CCCCCCCCCCCCCCCCCC(=O)N(CCOCCO)CC(O)COCCCCCCCCCC` (stereo not drawn) [Compound Ib4] showed a Skin conductance in experiment [1] of 17. Also, the “Score of skin roughness” value in experiment [2] (setting [3]) stood at 0.4; in experiment [2] (setting [4]) it was 0.6; in experiment [2] (setting [5]), 0.9.

On to `CCCCCCCCCCCCCCCCOCC(O)CN(C(=O)CCCCCCCCCCCCCCC)C(C(=O)O)C(C)C` (stereo not drawn) [Compound Ic7], for which the Skin conductance in experiment [1] stood at 15. The “Score of skin roughness” value in experiment [2] (setting [3]) came out at 0.6; in experiment [2] (setting [4]), 0.8; in experiment [2] (setting [5]), 1.1.

Molecule `CCCCCCCCCCCCCCCCCCOCC(O)CN(C(=O)CCCCCCCCCCCCCCCCC)C(C)CO` (stereo not drawn) [Compound Ia16] returned a Skin conductance in experiment [1] of 15. Besides, the “Score of skin roughness” value was found to be 0.4 in experiment [2] (setting [3]), 0.6 in experiment [2] (setting [4]) and 0.9 in experiment [2] (setting [5]).

Molecule `CCCCCCCCCCCCCCCCCCOCC(O)CN(CCOCCO)C(=O)CCCCCCCCCCCCCCCCC` (stereo not drawn) [Compound Ib5] yielded a Skin conductance in experiment [1] of 23. Moreover, the results for the “Score of skin roughness” value in experiment [2] (setting [3]), in experiment [2] (setting [4]) and in experiment [2] (setting [5]) were 0.2, 0.4 and 0.8, respectively.

Take `CCCCCCCCCCCCCCCCCC(=O)N(CCCCCCO)CC(O)COCCCCCCCCCC` (stereo not drawn) [Compound Ia7]: the Skin conductance in experiment [1] is recorded as 11. In addition, the “Score of skin roughness” value in experiment [2] (setting [3]) is 0.6; in experiment [2] (setting [4]), 0.9; in experiment [2] (setting [5]) it was 1.2.

In the case of `CCCCCCCCCCCCCCCCCCOCC(O)CN(CCCCCCO)C(=O)CCCCCCCCCC` (stereo not drawn) [Compound Ia8], in experiment [1], the Skin conductance is given as 13. The “Score of skin roughness” value in experiment [2] (setting [3]) stood at 0.5; in experiment [2] (setting [4]), 0.7; in experiment [2] (setting [5]) it was 1.1.

`CCCCCCCCCCCCCCCCCCOCC(O)CN(CC(O)COCCCCCCCCCC)C(C)=O` (stereo not drawn) [Compound II11] returned a Skin conductance in experiment [1] of 12. In addition, the results for the “Score of skin roughness” value in experiment [2] (setting [3]), in experiment [2] (setting [4]) and in experiment [2] (setting [5]) were 0.4, 0.8 and 1.2, respectively.

For `CCCCCCCCCCOCC(O)CN(CCOCCO)C(=O)CCCCCCCCC` (stereo not drawn) [Compound Ib2], the Skin conductance in experiment [1] is listed as 10. Moreover, the results for the “Score of skin roughness” value in experiment [2] (setting [3]), in experiment [2] (setting [4]) and in experiment [2] (setting [5]) were 0.8, 1.0 and 1.2, respectively.

In the case of `CCCCCCCCCCCCCCCCCCOCC(O)CN(C(=O)CCCCCCCCCCCCCCCCC)C(C)(C)CO` (stereo not drawn) [Compound Ia15], the Skin conductance in experiment [1] worked out at 13. For the same molecule, the “Score of skin roughness” value in experiment [2] (setting [3]) came out at 0.5; in experiment [2] (setting [4]), 0.7; in experiment [2] (setting [5]), 1.0.

Turning to `CCCCCCCCCCCCCCOCC(O)CN(C(=O)CCCCCCCCC)C(CO)(CO)CO` (stereo not drawn) [Compound Ia17], in experiment [1], the Skin conductance was 20. Further, the “Score of skin roughness” value in experiment [2] (setting [3]) came to 0.2; in experiment [2] (setting [4]), 0.4; in experiment [2] (setting [5]), 0.7.

In turn, `CCCCCCCCCCCCCCCCCCOCC(O)CN(CC(C)O)C(=O)CCCCCCCCCCCCCCCCC` (stereo not drawn) [Compound Ia13] came in with a Skin conductance in experiment [1] of 13. For the same molecule, the “Score of skin roughness” value was 0.5 in experiment [2] (setting [3]), 0.7 in experiment [2] (setting [4]) and 1.1 in experiment [2] (setting [5]).

`CCCCCCCCCCCCCCCCCC(=O)N(CCCO)CC(O)COCCCCCCCCCC` (stereo not drawn) [Compound Ia4]: the Skin conductance in experiment [1] is reported as 13. In addition, the “Score of skin roughness” value was determined as 0.5 in experiment [2] (setting [3]), 0.7 in experiment [2] (setting [4]) and 1.1 in experiment [2] (setting [5]).

Take `CCCCCCCCCCOCC(O)CN(CC(=O)O)CC(O)COCCCCCCCCCC` (stereo not drawn) [Compound II6]: the Skin conductance in experiment [1] was 7. Moreover, the “Score of skin roughness” value is given as 0.8 in experiment [2] (setting [3]), 1.0 in experiment [2] (setting [4]) and 1.2 in experiment [2] (setting [5]).

Molecule `CCCCCCCCCCCCCCCCCC(=O)N(CC(=O)O)CC(O)CCCCCCCCCCCCCCCC` (stereo not drawn) [Compound Ic4] yielded a Skin conductance in experiment [1] of 13. Also, the figures for the “Score of skin roughness” value in experiment [2] (setting [3]), in experiment [2] (setting [4]) and in experiment [2] (setting [5]) were 0.8, 1.0 and 1.3, respectively.

Turning to `CCCCCCCCCCCCCCCCOCC(O)CN(C(=O)CCCCCCCCCCCCCCC)C(Cc1c[nH]cn1)C(=O)O` (stereo not drawn) [Compound Ic12], the Skin conductance in experiment [1] is given as 11. Further, the “Score of skin roughness” value in experiment [2] (setting [3]) is given as 1.0; in experiment [2] (setting [4]) it was 1.3; in experiment [2] (setting [5]) it was 1.6.

Consider `CCCCCCCCCCOCC(O)CN(CC(O)COCCCCCCCCCC)C(C)=O` (stereo not drawn) [Compound II10], for which the Skin conductance in experiment [1] worked out at 9. In addition, the “Score of skin roughness” value in experiment [2] (setting [3]) was 0.8; in experiment [2] (setting [4]), 1.1; in experiment [2] (setting [5]) it was 1.2.

In the case of `CCCCCCCCCCCCCCCCC(O)CN(CCO)C(=O)CCCCCCCCC` (stereo not drawn) [Compound Id2], the Skin conductance in experiment [1] is 18. For the same molecule, the entries for the “Score of skin roughness” value in experiment [2] (setting [3]), in experiment [2] (setting [4]) and in experiment [2] (setting [5]) were 0.3, 0.5 and 0.8, respectively.

As for `CCCCCCCC/C=C\CCCCCCCCOCC(O)CN(CCOP(=O)([O-])OCC[N+](C)(C)C)C(=O)CCCCCCCCCCCCCCCCC` (stereo not drawn) [Compound Ie12], in experiment [1], the Skin conductance came out at 13. Besides, the “Score of skin roughness” value in experiment [2] (setting [3]) is reported as 0.9; in experiment [2] (setting [4]) it was 0.9; in experiment [2] (setting [5]) it was 1.5.

Regarding `CCCCCCCCCCCCCCCCOCC(CN(CCO)C(=O)CCCCCCCCCCCCCCC)OP(=O)([O-])OCC[N+](C)(C)C` (stereo not drawn) [Compound Ie13], in experiment [1], the Skin conductance is reported as 11. For the same molecule, the “Score of skin roughness” value in experiment [2] (setting [3]) came to 0.9; in experiment [2] (setting [4]) it was 1.1; in experiment [2] (setting [5]), 1.5.

In experiment [1], `CCCCCCCCCCCCCCCCOCC(O)CN(C(=O)CCCCCCCCCCCCCCC)C(C)C(=O)O` (stereo not drawn) [Compound Ic5] came in with a Skin conductance of 13. The “Score of skin roughness” value is 0.8 in experiment [2] (setting [3]), 1.0 in experiment [2] (setting [4]) and 1.3 in experiment [2] (setting [5]).

Turning to `CCCCCCCC/C=C\CCCCCCCC(=O)N(CCO)CC(O)CCCCCCCCCCCCCCCC` (stereo not drawn) [Compound Id5], the Skin conductance in experiment [1] is 25. In addition, the “Score of skin roughness” value is 0.1 in experiment [2] (setting [3]), 0.3 in experiment [2] (setting [4]) and 0.6 in experiment [2] (setting [5]).
